# Test results as given in patent US20100261711A1, “SELECTIVE ANTICONVULSANT AGENTS AND THEIR USES” (WiSys Technology Foundation, priority 2009, published 2010).
# Read-outs that look alike come from different tables or passages of the source. Marks after values point to notes of the source that are not given here.
# What was measured:
# Format in all cases: in vivo
# 6 Hz psychomotor seizure = assay: Minimal clonic seizure (6 Hz) test; conditions: Mice IP; for 6 Hz, animals protected/tested: 100 m/k; for ED50: Mus musculus, ip
# Method in brief: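 Mice dosed ip with test compound before 6 Hz corneal-type electrical stimulation lasting 3 s. Protection scored as absence of minimal clonic phase and stereotyped automatistic behaviour seen in untreated animals.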
# [1] = test system: Metrazol-induced clonic seizures; assay: Subcutaneous Metrazol test (scMet), mice
# [2] = test system: minimal muscular or neurological impairment; assay: Toxicity (TOX), rotorod procedure, mice
# MES-induced seizures [3] = assay: Maximal electroshock test (MES), rats
# Method: The benzodiazepine derivative compounds selective for GABAa receptor subunits were tested for the ability to suppress seizures in several standard rat and mouse models of epilepsy. […] The standard models incorporated into anticonvulsant screening include the maximal electroshock test (MES), the subcutaneous Metrazol test (scMet), and evaluations of toxicity (TOX). The data for each condition is presented as a ratio of either the number of animals protected or toxic (loss of locomotor activity) over the number of animals tested at a given time point and dose.
# The MES is a model for generalized tonic-clonic seizures and provides an indication of a compound's ability to prevent seizure spread when all neuronal circuits in the brain are maximally active. These seizures are highly reproducible and are electrophysiologically consistent with human seizures. For all tests based on MES convulsions, 60 Hz of alternating current (50 mA in mice, 150 in rats) is delivered for by corneal electrodes which have been primed with an electrolyte solution containing an anesthetic agent (0.5% tetracaine HCL). For Test 1, mice are tested at various intervals following doses of 30, 100 and 300 mg/kg of test compound given by ip injection of a volume of 0.01 mL/g. In Test 2, rats are tested after a dose of 30 mg/kg (po) in a volume of 0.04 mL/g. Test 8 uses varying doses administered via i.p. injection, again in a volume of 0.04 ml/g. […] In Antiepileptic Drugs, Levy, R. H. M., Meldrum, B. S., Eds.; Raven Press: New York, pp 99-110, 1995b.).
# [4] = test system: Metrazol-induced clonic seizures; assay: Subcutaneous Metrazol test (scMet), rats
# [5] = test system: minimal motor deficit (ataxia, abnormal gait); assay: Toxicity (TOX), minimal motor deficit, rats; conditions: for TOX (Rotorod Test), animals toxic/tested: Rat IP, 100 mg/kg
# MES-induced seizures [6] = assay: Maximal electroshock test (MES), mice
# [7] = Mice, 50 mg/kg PO (Mice IP), 0.5 hr
# [8] = Mice, 50 mg/kg PO (Mice IP), 4.0 hr
structure (smiles),measurement,setting,value
"C#Cc1ccc2c(c1)C(c1ccccc1F)=NCc1c(C(=O)OCC)ncn1-2 [JY-XHe-053 (15), Ethyl-8-acetyleno-6-(2′-fluorophenyl)-4H-benzo[f]imidazo[1,5-a][1,4]diazepine-3-carboxylate]","6 Hz, animals protected/tested","6 Hz psychomotor seizure; 44 mA, 0.5 hr",4/4
same,"6 Hz, animals protected/tested","6 Hz psychomotor seizure; 44 mA, 1.0 hr",2/4
same,"6 Hz, animals protected/tested","6 Hz psychomotor seizure; 44 mA, 2.0 hr",2/4
same,"6 Hz, animals protected/tested","6 Hz psychomotor seizure; 44 mA, 4 hr",0/4
same,"6 Hz, animals protected/tested","6 Hz psychomotor seizure; 44 mA, […]",2/4
same,ED50,"6 Hz psychomotor seizure; 32 mA, read-out: ED50 32 mA (6 Hz test)",39.2 mg/kg
same,"scMet, animals protected/tested","[1]; Mice IP, 100 mg/kg, 0.5 hr",5/5
same,"scMet, animals protected/tested","[1]; Mice IP, 100 mg/kg, 4.0 hr",0/1
same,"scMet, animals protected/tested",[1]; [7],3/4
same,"scMet, animals protected/tested",[1]; [8],4/4
same,ED50,"[1]; Mus musculus, Mice IP",8.87 mg/kg
same,"TOX (Rotorod Test), animals toxic/tested","[2]; Mice IP, 100 mg/kg, 0.5 hr",6/8
same,"TOX (Rotorod Test), animals toxic/tested","[2]; Mice IP, 100 mg/kg, 4.0 hr",0/4
same,TD50 TOX,"[2]; Mice IP, rotorod",> 400 mg/kg
same,"TOX (Rotorod Test), animals toxic/tested",[2]; [7],0/4
same,"TOX (Rotorod Test), animals toxic/tested",[2]; [8],0/4
same,ED50,MES-induced seizures [3]; Rat IP,> 30 mg/kg
same,ED50,MES-induced seizures [3]; Rat PO,> 250 mg/kg
same,"MES, animals protected/tested","MES-induced seizures [3]; Rat PO, 30 mg/kg, 0.5 h",0/4
same,"MES, animals protected/tested","MES-induced seizures [3]; Rat PO, 30 mg/kg, 1.0 h",0/4
same,"MES, animals protected/tested","MES-induced seizures [3]; Rat PO, 30 mg/kg, 2.0 h",0/4
same,"MES, animals protected/tested","MES-induced seizures [3]; Rat PO, 30 mg/kg, 4.0 h",1/4
same,"MES, animals protected/tested","MES-induced seizures [3]; Rat PO, 30 mg/kg, 6.0 h",0/4
same,ED50,[4]; Rat IP,18.2 mg/kg
same,"scMet, animals protected/tested","[4]; Rat IP, 100 mg/kg, 0.5 hr",3/4
same,"scMet, animals protected/tested","[4]; Rat IP, 100 mg/kg, 4.0 hr",3/4
same,ED50,[4]; Rat PO,23.7 mg/kg
same,"scMet, animals protected/tested","[4]; Rat PO, 40 mg/kg, 4.0 h",2/4^e
same,"scMet, animals protected/tested","[4]; Rat PO, 40 mg/kg, 6.0 h",2/4^e
same,"scMet, animals protected/tested","[4]; Rat PO, 50 mg/kg, 0.5 h",3/4
same,"scMet, animals protected/tested","[4]; Rat PO, 50 mg/kg, 1.0 h",3/4
same,"scMet, animals protected/tested","[4]; Rat PO, 50 mg/kg, 2.0 h",1/4
same,"scMet, animals protected/tested","[4]; Rat PO, 50 mg/kg, 4.0 h",4/4
same,"scMet, animals protected/tested","[4]; Rat PO, 50 mg/kg, […]",1/4
same,"TOX (Rotorod Test), animals toxic/tested",[5]; 0.5 hr,0/4
same,"TOX (Rotorod Test), animals toxic/tested",[5]; 4.0 hr,0/4
same,"Tox, animals toxic/tested","[5]; Rat PO, 40 mg/kg, 4.0 h",0/4^e
same,"Tox, animals toxic/tested","[5]; Rat PO, 40 mg/kg, 6.0 h",0/4^e
same,"Tox, animals toxic/tested","[5]; Rat PO, 50 mg/kg, 0.5 h",0/4
same,"Tox, animals toxic/tested","[5]; Rat PO, 50 mg/kg, 1.0 h",0/4
same,"Tox, animals toxic/tested","[5]; Rat PO, 50 mg/kg, 2.0 h",0/4
same,"Tox, animals toxic/tested","[5]; Rat PO, 50 mg/kg, 4.0 h",0/4
same,"Tox, animals toxic/tested","[5]; Rat PO, 50 mg/kg, […]",0/4
same,TD50 TOX,"[5]; Rat PO, abnormal gait",>500 mg/kg
same,motor impairment / sedative or locomotor effects,"[5]; rats, oral administration, up to 500 mg/kg",No motor impairment
same,"MES, animals protected/tested","MES-induced seizures [6]; Mice IP, 100 mg/kg, 0.5 hr",0/3
same,"MES, animals protected/tested","MES-induced seizures [6]; Mice IP, 100 mg/kg, 4.0 hr",0/3
same,"MES, animals protected/tested",MES-induced seizures [6]; [7],1/4
same,"MES, animals protected/tested",MES-induced seizures [6]; [8],0/4
same,ED50,"MES-induced seizures [6]; Mus musculus, Mice IP",> 200 mg/kg
"C#Cc1ccc2c(c1)C(c1ccccc1)=N[C@H](C)c1nnc(C)n1-2 [SH-TR-CH3 (146), (4R)-8-Ethynyl-1,4-dimethyl-6-phenyl-4H-benzo[f][1,2,4]triazolo[4,3-a][1,4]diazepine]","6 Hz Time to Peak Effect, protected/tested","6 Hz psychomotor seizure; 7 mg/kg, 32 mA, 0.25 Hr",4/4
same,"6 Hz Time to Peak Effect, protected/tested","6 Hz psychomotor seizure; 7 mg/kg, 32 mA, 0.5 Hr",4/4
same,"6 Hz Time to Peak Effect, protected/tested","6 Hz psychomotor seizure; 7 mg/kg, 32 mA, 1.0 Hr",2/4
same,"6 Hz Time to Peak Effect, protected/tested","6 Hz psychomotor seizure; 15 mg/kg, 32 mA, 0.25 Hr",4/4
same,"6 Hz Time to Peak Effect, protected/tested","6 Hz psychomotor seizure; 15 mg/kg, 32 mA, 0.5 Hr",4/4^14
same,"6 Hz Time to Peak Effect, protected/tested","6 Hz psychomotor seizure; 15 mg/kg, 32 mA, 1.0 Hr",4/4^14
same,"6 Hz Time to Peak Effect, protected/tested","6 Hz psychomotor seizure; 15 mg/kg, 32 mA, 2.0 Hr",2/4
same,"6 Hz Time to Peak Effect, protected/tested","6 Hz psychomotor seizure; 15 mg/kg, 32 mA, 4.0 Hr",1/4
same,"6 Hz Time to Peak Effect, protected/tested","6 Hz psychomotor seizure; 50 mg/kg, 32 mA, 0.25 Hr",4/4^14
same,"6 Hz Time to Peak Effect, protected/tested","6 Hz psychomotor seizure; 50 mg/kg, 32 mA, 0.5 Hr",4/4^14
same,"6 Hz Time to Peak Effect, protected/tested","6 Hz psychomotor seizure; 100 mg/kg, 32 mA, 0.25 Hr",4/4^14
same,"6 Hz Time to Peak Effect, protected/tested","6 Hz psychomotor seizure; 100 mg/kg, 32 mA, 0.5 Hr",4/4^14
same,"6 Hz Time to Peak Effect, protected/tested","6 Hz psychomotor seizure; 100 mg/kg, 32 mA, 1.0 Hr",4/4^14
same,"6 Hz Time to Peak Effect, protected/tested","6 Hz psychomotor seizure; 100 mg/kg, 32 mA, 2.0 Hr",4/4^14
same,"6 Hz Time to Peak Effect, protected/tested","6 Hz psychomotor seizure; 100 mg/kg, 32 mA, 4.0 Hr",4/4^14
same,"6 Hz ED50 Biological Response, protected/tested","6 Hz psychomotor seizure; 32 mA, 0.25 Hr, 1.75 mg/kg",4/8
same,"6 Hz ED50 Biological Response, protected/tested","6 Hz psychomotor seizure; 32 mA, 0.25 Hr, 7 mg/kg",8/8
same,"6 Hz ED50 Biological Response, protected/tested","6 Hz psychomotor seizure; 44 mA, 0.25 Hr, 5 mg/kg",5/8
same,"6 Hz ED50 Biological Response, protected/tested","6 Hz psychomotor seizure; 44 mA, 0.25 Hr, 10 mg/kg",8/8
same,ED50,"6 Hz psychomotor seizure; […], 32 mA, 0.25 Hr, read-out: ED50 (6 Hz)",2.08 mg/kg
same,ED50,"6 Hz psychomotor seizure; […], 44 mA, 0.25 Hr, read-out: ED50 (6 Hz)",4.55 mg/kg
same,"scMet, animals protected/tested","[1]; Mice IP, 30 mg/kg, 0.5 Hr",0/1
same,"scMet, animals protected/tested","[1]; Mice IP, 30 mg/kg, 4.0 Hr",0/1
same,"scMet, animals protected/tested","[1]; Mice IP, 100 mg/kg, 0.5 hr",0/1
same,"scMet, animals protected/tested","[1]; Mice IP, 100 mg/kg, 4.0 hr",0/1
same,"scMet, animals protected/tested","[1]; Mice IP, 300 mg/kg, 0.5 Hr",1/1
same,"scMet, animals protected/tested","[1]; Mice IP, 300 mg/kg, 4.0 Hr",0/1
same,"TOX (Rotorod Test), animals toxic/tested","[2]; Mice IP, 30 mg/kg, 0.5 Hr",0/4
same,"TOX (Rotorod Test), animals toxic/tested","[2]; Mice IP, 30 mg/kg, 4.0 Hr",0/2
same,"TOX (Rotorod Test), animals toxic/tested","[2]; Mice IP, 100 mg/kg, 0.5 hr",1/8
same,"TOX (Rotorod Test), animals toxic/tested","[2]; Mice IP, 100 mg/kg, 4.0 hr",0/4
same,"TOX (Rotorod Test), animals toxic/tested","[2]; Mice IP, 300 mg/kg, 0.5 Hr",1/4
same,"TOX (Rotorod Test), animals toxic/tested","[2]; Mice IP, 300 mg/kg, 4.0 Hr",0/2
same,"MES, animals protected/tested","MES-induced seizures [3]; Rat PO, 50 mg/kg, 0.5 h",0/4
same,"MES, animals protected/tested","MES-induced seizures [3]; Rat PO, 50 mg/kg, 1.0 h",0/4
same,"MES, animals protected/tested","MES-induced seizures [3]; Rat PO, 50 mg/kg, 2.0 h",0/4
same,"MES, animals protected/tested","MES-induced seizures [3]; Rat PO, 50 mg/kg, 4.0 h",0/4
same,"MES, animals protected/tested","MES-induced seizures [3]; Rat PO, 50 mg/kg, […]",0/4
same,"Tox, animals toxic/tested","[5]; Rat PO, 50 mg/kg, 0.5 h",0/4
same,"Tox, animals toxic/tested","[5]; Rat PO, 50 mg/kg, 1.0 h",1/4
same,"Tox, animals toxic/tested","[5]; Rat PO, 50 mg/kg, 2.0 h",1/4
same,"Tox, animals toxic/tested","[5]; Rat PO, 50 mg/kg, 4.0 h",0/4
same,"Tox, animals toxic/tested","[5]; Rat PO, 50 mg/kg, […]",0/4
same,"MES, animals protected/tested","MES-induced seizures [6]; Mice IP, 30 mg/kg, 0.5 Hr",0/1
same,"MES, animals protected/tested","MES-induced seizures [6]; Mice IP, 30 mg/kg, 4.0 Hr",0/1
same,"MES, animals protected/tested","MES-induced seizures [6]; Mice IP, 100 mg/kg, 0.5 hr",0/3
same,"MES, animals protected/tested","MES-induced seizures [6]; Mice IP, 100 mg/kg, 4.0 hr",0/3
same,"MES, animals protected/tested","MES-induced seizures [6]; Mice IP, 300 mg/kg, 0.5 Hr",0/1
same,"MES, animals protected/tested","MES-induced seizures [6]; Mice IP, 300 mg/kg, 4.0 Hr",0/1
